Test results: ChEMBL document CHEMBL5050852, “Kif18a inhibitors” (2021)

Molecular target: T1, Kinesin-like protein KIF18A (Homo sapiens, UniProt Q8NI77)
T1 sequence (Q8NI77 whole entry): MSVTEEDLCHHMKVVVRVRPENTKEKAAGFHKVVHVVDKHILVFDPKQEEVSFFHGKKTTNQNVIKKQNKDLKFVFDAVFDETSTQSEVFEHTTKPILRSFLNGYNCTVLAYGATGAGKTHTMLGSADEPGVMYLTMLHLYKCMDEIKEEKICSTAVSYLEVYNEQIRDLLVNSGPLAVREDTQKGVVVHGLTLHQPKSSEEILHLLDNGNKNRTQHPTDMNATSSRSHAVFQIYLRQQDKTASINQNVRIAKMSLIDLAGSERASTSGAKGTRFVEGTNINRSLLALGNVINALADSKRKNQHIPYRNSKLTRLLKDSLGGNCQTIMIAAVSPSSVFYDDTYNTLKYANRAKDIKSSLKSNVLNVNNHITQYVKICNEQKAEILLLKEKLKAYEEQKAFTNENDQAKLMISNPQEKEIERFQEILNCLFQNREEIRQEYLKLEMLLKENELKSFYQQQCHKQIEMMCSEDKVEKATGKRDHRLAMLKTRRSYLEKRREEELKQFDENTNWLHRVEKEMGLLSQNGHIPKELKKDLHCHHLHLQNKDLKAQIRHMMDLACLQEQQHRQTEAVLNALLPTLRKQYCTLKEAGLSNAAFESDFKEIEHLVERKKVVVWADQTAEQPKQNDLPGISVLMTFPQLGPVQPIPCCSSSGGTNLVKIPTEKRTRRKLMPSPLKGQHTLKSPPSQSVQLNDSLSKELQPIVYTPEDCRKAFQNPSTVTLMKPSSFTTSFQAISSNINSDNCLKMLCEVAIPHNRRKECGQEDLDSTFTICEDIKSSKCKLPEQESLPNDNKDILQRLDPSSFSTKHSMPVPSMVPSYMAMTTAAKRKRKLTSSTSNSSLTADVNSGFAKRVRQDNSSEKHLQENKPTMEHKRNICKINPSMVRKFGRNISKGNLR
Assay: Inhibition of recombinant His-tagged human KIF18A (1 to 467 residues) expressed in baculovirus expression system assessed as inhibition of microtubule-stimulated ATPase activity preincubated for 15 mins followed by ATP addition and further incubated for 15 mins and measured after 40 mins by ADP-Glo reagent based assay

| IC50 | SMILES |
| --- | --- |
| 75 nM | CCS(=O)(=O)Cc1ccc(C(=O)Nc2cccc(S(=O)(=O)NC(C)(C)C)c2)c(N2CCC3(CC2)CC3)c1 |
| 51 nM | CC(C)(C)NS(=O)(=O)c1cccc(NC(=O)c2ccc(NS(=O)(=O)CCO)cc2N2CCC3(CC2)CC3)c1 |
| 76 nM | CC(C)(C)NS(=O)(=O)c1cccc(NC(=O)c2ccc(CS(=O)(=O)C(C)(C)C)cc2N2CCC3(CC2)CC3)c1 |
| 131 nM | C[C@@H]1CN(c2cc(F)cc(NC(=O)c3ccc(NS(=O)(=O)CCO)cc3N3CCC4(CC3)CC4)c2)CCO1 |
| 198 nM | CC(C)(CO)Nc1cccc(NC(=O)c2ccc(S(=O)(=O)NC3(C)COC3)cc2N2CCC3(CC2)CC3)c1 |
